Results as given in US12473289B2, “Heterocyclic compounds as delta-5 desaturase inhibitors and methods of use” (Amgen Inc., priority 2019, dated 2025).

Each molecule was assayed against Delta-5-Desaturase (D5D) (Homo sapiens (Human), UniProt O60427) (assay: In vitro measurement of Delta-5-Desaturase inhibitory activity using DGLA-CoA and Arachidonyl-CoA mass spectrometric assays). Conditions: membrane preparations of D5D-overexpressing HEK293 6E cells; averaged over at least two independent runs.
Chain of Delta-5-Desaturase (D5D) (O60427 whole entry, species assumed): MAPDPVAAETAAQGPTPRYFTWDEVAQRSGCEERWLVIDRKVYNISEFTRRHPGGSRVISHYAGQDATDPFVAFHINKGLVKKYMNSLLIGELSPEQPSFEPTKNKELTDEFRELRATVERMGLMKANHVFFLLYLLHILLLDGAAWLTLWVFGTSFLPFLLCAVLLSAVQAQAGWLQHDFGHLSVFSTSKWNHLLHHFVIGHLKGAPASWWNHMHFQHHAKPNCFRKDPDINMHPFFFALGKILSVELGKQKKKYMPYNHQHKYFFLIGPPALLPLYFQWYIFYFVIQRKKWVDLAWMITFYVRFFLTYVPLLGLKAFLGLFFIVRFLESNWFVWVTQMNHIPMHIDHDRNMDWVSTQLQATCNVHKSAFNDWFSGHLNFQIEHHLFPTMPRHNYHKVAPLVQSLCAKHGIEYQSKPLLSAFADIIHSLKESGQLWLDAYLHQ
Assay type: biochemical
Description: In vitro Measurement of Delta-5-Desaturase Inhibitory Activity using DGLA-CoA and Arachidonyl-CoA Mass Spectrometric Assays
Membrane preparations of D5D-overexpressing HEK293 6E cells were prepared in which the total protein concentration was 5.6 mg/mL. Stock D5D membrane preparations were diluted in D5D assay buffer (25 mM 2-amino-2-(hydroxymethyl)-1,3-propanediol, pH 7.5 containing 10 mM MgCl2, 1 mM octyl glucoside (SigmaAldrich 0-8001), 1 mM tris(2-carboxyethyl)phosphine hydrochloride (SigmaAldrich 646547)) to a final D5D membrane concentration of 10 μg/mL in an assay plate containing serially diluted test compounds. To 15 μL of this D5D preparation was added 15 μL of a substrate solution (0.25 mM NADH (nicotinamide adenine dinucleotide, Roche Diag. 10107735001), 0.25 mM adenosine triphosphate (SigmaAldrich A-3377), 0.05 mM coenzyme A hydrate (SigmaAldrich C-4282), and 0.01 mM DGLA (dihomo-g-linolenic acid, Sigma E-4504) in the same D5D assay buffer. After one-hour incubation at ambient temperature acetonitrile (30 μL) was added to quench the reaction and plates were centrifuged for 10 min @3,000 rpm. Mass spectrometric analysis involved a Rapidfire 360 SPE system coupled to an ABSciex API4000 Triple Quadrupole mass spectrometer using a C18 SPE cartridge (G9203-80105) with ionization in negative mode (solvent A=100% water; solvent B=100% acetonitrile, each solvent containing 5 mM ammonium acetate). DGLA-CoA and Arachidonyl-CoA were detected by multiple reaction monitoring (MRM) of the doubly charged parent ions at m/z 526.6 and 525.6, respectively.
Sx is value from unknown sample, So is value from DMSO alone and Sc is value from no enzyme well. For CRC analysis, the % of inhibitions were analyzed with 4 Parameter Logistic Model or Sigmoidal Dose-Response Model using XLfit (IDBS, Guilford, UK). The potency of the test item was expressed as IC50 nM, corresponding to the test item concentration able to inhibit the 50% of the enzyme maximal response. IC50 values were averaged values determined by at least two independent runs.
This assay may be used to test any of the compounds described herein to assess and characterize a compound's ability to inhibit D5D.
Work on `[2H]C([2H])([2H])Oc1ccn2c(=O)c(-c3ccc(OCC(F)F)cc3)c(C(F)(F)F)nc2c1` [Example 1-52, 3-(4-(2,2-difluoroethoxy)phenyl)-8-(methyloxy-d3)-2-(trifluoromethyl)-4H-pyrido[1,2-a]pyrimidin-4-one] yielded an IC50 of 5.6 nM.
`O=c1c(-c2cnn(-c3ccccc3)c2)c(C(F)(F)F)nc2ccccn12` [Example 1-43, 3-(1-phenyl-1H-pyrazol-4-yl)-2-(trifluoromethyl)-4H-pyrido[1,2-a]pyrimidin-4-one] was tested, and the IC50 was 45.6 nM.
For `CN1CCn2c(nc(C(F)(F)F)c(-c3cnn(CC(F)(F)C(F)(F)F)c3)c2=O)C1` [Example 64, 8-Methyl-3-[1-(2,2,3,3,3-pentafluoropropyl)-1H-pyrazol-4-yl]-2-(trifluoromethyl)-4H,6H,7H,8H,9H-pyrimido[1,2-a]pyrazin-4-one], the IC50 was 540 nM.
Work on `COc1ccn2c(=O)c(-c3cnc(OCC(F)(F)C(F)(F)F)nc3)c(C(F)(F)F)nc2c1` [Example 39-12, 8-methoxy-3-[2-(2,2,3,3,3-pentafluoropropoxy)pyrimidin-5-yl]-2-(trifluoromethyl)-4H-pyrido[1,2-a]pyrimidin-4-one] yielded an IC50 of 53.7 nM.
Molecule `COc1ccn2c(=O)c(-c3ccc(O[C@@H](C)C#N)cc3)c(C(F)(F)F)nc2n1` [Example 8-7, (2S)-2-(4-(8-methoxy-4-oxo-2-(trifluoromethyl)-4H-pyrimido[1,2-a]pyrimidin-3-yl)phenoxy)propanenitrile] has an IC50 of 4910 nM.
`C[C@H](O)c1ccn2c(=O)c(-c3cnn(CC(F)(F)C(F)(F)F)c3)c(C(F)(F)F)nc2c1` [Example 31-2, 8-((1S)-1-hydroxyethyl)-3-(1-(2,2,3,3,3-pentafluoropropyl)-1H-pyrazol-4-yl)-2-(trifluoromethyl)-4H-pyrido[1,2-a]pyrimidin-4-one] showed an IC50 of 160 nM.
Molecule `COc1ccn2c(=O)c(-c3ccc(CCC#N)cc3)c(C(F)(F)F)nc2c1` [Example 1-1, 3-(4-(8-Methoxy-4-oxo-2-(trifluoromethyl)-4H-pyrido[1,2-a]pyrimidin-3-yl)phenyl)propanenitrile] has an IC50 of 197 nM.
For `COc1nc2nc(C(F)(F)F)c(-c3cnn(CC(F)(F)C(F)(F)F)c3)c(=O)n2cc1Cl` [Example 66, 7-Chloro-8-methoxy-3-[1-(2,2,3,3,3-pentafluoropropyl)-1H-pyrazol-4-yl]-2-(trifluoromethyl)-4H-[1,3]diazino[1,2-a]pyrimidin-4-one], the IC50 was 111 nM.
`COc1ccn2c(=O)c(-c3ccc(OCC(F)(F)F)cc3Cl)c(C(F)(F)F)nc2c1` [Example 8-3, 3-(2-chloro-4-(2,2,2-trifluoroethoxy)phenyl)-8-methoxy-2-(trifluoromethyl)-4H-pyrido[1,2-a]pyrimidin-4-one] was tested, and the IC50 was 22.5 nM.
Work on `C[S@+]([O-])c1ccn2c(=O)c(-c3cnn(CC(F)(F)C(F)(F)F)c3)c(C(F)(F)F)nc2c1` [Example 15-5, 8-((S)-methylsulfinyl)-3-(1-(2,2,3,3,3-pentafluoropropyl)-1H-pyrazol-4-yl)-2-(trifluoromethyl)-4H-pyrido[1,2-a]pyrimidin-4-one] yielded an IC50 of 159 nM.
Molecule `O=c1c(-c2cnn(CC(F)(F)C(F)(F)F)c2)c(C(F)(F)F)nc2cc(OCCl)ccn12` [Example 46, 8-(Chloromethoxy)-3-[1-(2,2,3,3,3-pentafluoropropyl)-1H-pyrazol-4-yl]-2-(trifluoromethyl)-4H-pyrido[1,2-a]pyrimidin-4-one] has an IC50 of 16.6 nM.
Work on `Cc1cc2nc(C(F)(F)F)c(-c3cnn(CC(F)(F)C(F)(F)F)c3)c(=O)n2cc1Cl` [Example 41-1, 7-Chloro-8-methyl-3-[1-(2,2,3,3,3-pentafluoropropyl)-1H-pyrazol-4-yl]-2-(trifluoromethyl)-4H-pyrido[1,2-a]pyrimidin-4-one] yielded an IC50 of 1.2 nM.
Molecule `O=c1c(-c2ccc(OCC(F)(F)F)cc2)c(C(F)(F)F)nc2cc(Cl)ccn12` [Example 2-7, 8-chloro-3-(4-(2,2,2-trifluoroethoxy)phenyl)-2-(trifluoromethyl)-4H-pyrido[1,2-a]pyrimidin-4-one] has an IC50 of 4.1 nM.
In the case of `Cc1cn2c(=O)c(-c3cnn(CC(F)(F)C(F)(F)F)c3)c(C(F)(F)F)nc2cn1` [Example 39-31, 7-methyl-3-[1-(2,2,3,3,3-pentafluoropropyl)-1H-pyrazol-4-yl]-2-(trifluoromethyl)-4H-pyrazino[1,2-a]pyrimidin-4-one], the IC50 is reported as 28 nM.
Work on `COc1ccn2c(=O)c(-c3cnn(-c4cccc(F)c4)c3)c(C(F)(F)F)nc2c1` [Example 1-18, 3-(1-(3-fluorophenyl)-1H-pyrazol-4-yl)-8-methoxy-2-(trifluoromethyl)-4H-pyrido[1,2-a]pyrmidin-4-one] yielded an IC50 of 25.2 nM.
`O=c1c(-c2cnn(CCC(F)(F)F)c2)c(C(F)(F)F)nc2ccc(F)cn12` [Example 39-27, 7-fluoro-2-(trifluoromethyl)-3-[1-(3,3,3-trifluoropropyl)-1H-pyrazol-4-yl]-4H-pyrido[1,2-a]pyrimidin-4-one] showed an IC50 of 1.1 nM.
`CC(C)c1ccn2c(=O)c(-c3ccc(OCC(F)(F)F)cc3)c(C(F)(F)F)nc2c1` [Example 1-32, 8-(2-propanyl)-3-(4-(2,2,2-trifluoroethoxy)phenyl)-2-(trifluoromethyl)-4H-pyrido[1,2-a]pyrimidin-4-one] showed an IC50 of 421 nM.
`COc1ccn2c(=O)c(-c3cc4ccccc4o3)c(C(F)(F)F)nc2c1` [Example 1-7, 3-(1-benzofuran-2-yl)-8-methoxy-2-(trifluoromethyl)-4H-pyrido[1,2-a]pyrimidin-4-one] showed an IC50 of 85.2 nM.
Work on `Cc1cc2nc(C(F)(F)F)c(-c3cnn(CCC(F)(F)F)c3)c(=O)n2cc1Cl` [Example 41-2, 7-chloro-8-methyl-2-(trifluoromethyl)-3-[1-(3,3,3-trifluoropropyl)-1H-pyrazol-4-yl]-4H-pyrido[1,2-a]pyrimidin-4-one] yielded an IC50 of 51.1 nM.
`N#Cc1ccn2c(=O)c(-c3cnn(CC(F)(F)C(F)(F)F)c3)c(C(F)F)nc2c1` [Example 1-85, 2-(difluoromethyl)-4-oxo-3-(1-(2,2,3,3,3-pentafluoropropyl)-1H-pyrazol-4-yl)-4H-pyrido[1,2-a]pyrimidine-8-carbonitrile] showed an IC50 of 148 nM.
With `COc1ccn2c(=O)c(-c3cc(-c4ccccc4)no3)c(C(F)(F)F)nc2c1` [Example 1-5, 8-methoxy-3-(3-phenyl-1,2-oxazol-5-yl)-2-(trifluoromethyl)-4H-pyrido[1,2-a]pyrimidin-4-one] the IC50 was 46 nM.
With `COc1ccn2c(=O)c(-c3cnn(CC(F)(F)C(F)(F)F)c3)c(C(F)(F)F)nc2c1F` [Example 39-4, 9-fluoro-8-methoxy-3-[1-(2,2,3,3,3-pentafluoropropyl)-1H-pyrazol-4-yl]-2-(trifluoromethyl)-4H-pyrido[1,2-a]pyrimidin-4-one] the IC50 was 46.4 nM.
`[2H]C([2H])([2H])Oc1ccn2c(=O)c(-c3ccc(OCCF)cc3)c(C(F)(F)F)nc2c1` [Example 1-51, 3-(4-(2-fluoroethoxy)phenyl)-8-(methyloxy-d3)-2-(trifluoromethyl)-4H-pyrido[1,2-a]pyrimidin-4-one] was tested, and the IC50 was 26.6 nM.
For `CN(C(=O)F)c1ccn2c(=O)c(-c3cnn(CC(F)(F)C(F)(F)F)c3)c(C(F)(F)F)nc2c1` [Example 23, Methyl(4-oxo-3-(1-(2,2,3,3,3-pentafluoropropyl)-1H-pyrazol-4-yl)-2-(trifluoromethyl)-4H-pyrido[1,2-a]pyrimidin-8-yl)carbamyl fluoride], the IC50 was 1.6 nM.
In the case of `N#Cc1ccn2c(=O)c(-c3ccc(OCC(F)(F)F)cc3)c(C(F)(F)F)nc2c1` [Example 2-9, 4-oxo-3-(4-(2,2,2-trifluoroethoxy)phenyl)-2-(trifluoromethyl)-4H-pyrido[1,2-a]pyrimidine-8-carbonitrile], the IC50 is reported as 440 nM.
`O=c1ccn2c(=O)c(-c3cnn(CC(F)(F)C(F)(F)F)c3)c(C(F)(F)F)nc2n1CCl` [Example 65, 1-(Chloromethyl)-7-[1-(2,2,3,3,3-pentafluoropropyl)-1H-pyrazol-4-yl]-8-(trifluoromethyl)-1H,2H,6H-pyrimido[1,2-a][1,3]diazine-2,6-dione] gave an IC50 of 90.5 nM.
`C[C@H](O)c1ccn2c(=O)c(-c3ccc(OCC(F)(F)F)cc3)c(C(F)(F)F)nc2c1` [Example 30-1, 8-((1S)-1-hydroxyethyl)-3-(4-(2,2,2-trifluoroethoxy)phenyl)-2-(trifluoromethyl)-4H-pyrido[1,2-a]pyrimidin-4-one] was tested, and the IC50 was 74.2 nM.
`COC(=O)c1ccc2nc(C(F)(F)F)c(-c3cnn(CC(F)(F)C(F)(F)F)c3)c(=O)n2c1` [Example 39-16, methyl 4-oxo-3-[1-(2,2,3,3,3-pentafluoropropyl)-1H-pyrazol-4-yl]-2-(trifluoromethyl)-4H-pyrido[1,2-a]pyrimidine-7-carboxylate] showed an IC50 of 35100 nM.
With `COc1ccn2c(=O)c(-c3cccc(OCC(F)(F)F)c3)c(C(F)(F)F)nc2c1` [Example 62, 8-Methoxy-3-[3-(2,2,2-trifluoroethoxy)phenyl]-2-(trifluoromethyl)-4H-pyrido[1,2-a]pyrimidin-4-one] the IC50 was greater than 67000 nM.
